Assay results as given in patent US9237747B2, “Herbicidal compositions comprising 4-amino-3-chloro-5-fluoro-6-(4-chloro-2-fluoro-3-methoxyphenyl) pyridine-2-carboxylic acid or a derivative thereof and insecticides” (priority 2013, dated 2016).
Where two headings read alike, the source gives them in different places.

Key:
LEFPA = experiment: Postemergence foliar-applied weed control, direct-seeded rice (greenhouse); format: in vivo, Leptochloa panicoides
Text: (§1) Seeds or nutlets of the desired test plant species were planted in a soil matrix prepared by mixing a loam or sandy loam soil (e.g., 28.6 percent silt, 18.8 percent clay, and 52.6 percent sand, with a pH of about 5.8 and an organic matter content of about 1.8 percent) and calcareous grit in an 80 to 20 ratio. The soil matrix was contained in plastic pots with a volume of 1 quart and a surface area of 83.6 square centimeters (cm^2). When required to ensure good germination and healthy plants, a fungicide treatment and/or other chemical or physical treatment was applied. The plants were grown for 8-22 days in a greenhouse with an approximate 14 hour (h) photoperiod which was maintained at about 29° C. during the day and 26° C. during the night. Nutrients (Peters Excel® 15-5-15 5-Ca 2-Mg and iron chelate) were applied in the irrigation solution as needed and water was added on a regular basis. Supplemental lighting was provided with overhead metal halide 1000-Watt lamps as necessary. The plants were employed for testing when they reached the first through fourth true leaf stage.
(§2) Treatments consisted of the acid or esters of 4-amino-3-chloro-6-(4-chloro-2-fluoro-3-methoxyphenyl)-5-fluoropyridine-2-carboxylic acid (Compound A), each formulated as an SC (suspension concentrate), and various insecticidal components alone and in combination. Forms of compound A were applied on an acid equivalent basis.
(§3) Treatment requirements were calculated based upon the rates being tested, the concentration of active ingredient or acid equivalent in the formulation, and a 12 milliliter (mL) application volume at a rate of 187 liters per hectare (L/ha).
(§4) For treatments comprised of formulated compounds, measured amounts of compounds were placed individually in 25 mL glass vials and diluted in a volume of 1.25% volume per volume (v/v) Agri-Dex® crop oil concentrate to obtain 12× stock solutions. […] Application solutions were prepared by adding an appropriate amount of each stock solution (e.g., 1 mL) and diluted to the appropriate final concentrations with the addition of […] of an aqueous mixture of 1.25% (v/v) crop oil concentrate so that the final spray solutions contained 1.25+/−0.05% (v/v) crop oil concentrate.
(§5) As required, additional water and/or 97:3 v/v acetone/DMSO was added to individual application solutions so that the final acetone and DMSO concentrations of the application solutions being compared were 8.1% and 0.25%, respectively.
(§6) All stock solutions and applications solutions were visually inspected for compound compatibility prior to application. Spray solutions were applied to the plant material with an overhead Mandel track sprayer equipped with 8002E nozzles calibrated to deliver 187 L/ha over an application area of 0.503 square meters (m^2) at a spray height of 18 to 20 inches (46 to 50 cm) above average plant canopy height. Control plants were sprayed in the same manner with the solvent blank.
(§7) The treated plants and control plants were placed in a greenhouse as described above and watered by sub-irrigation to prevent wash-off of the test compounds. After approximately 3 weeks, the condition of the test plants as compared to that of the untreated plants was determined visually and scored on a scale of 0 to 100 percent where 0 corresponds to no injury or growth inhibition and 100 corresponds to complete kill.
(§8) Colby's equation was used to determine the herbicidal effects expected from the mixtures (Colby, S. R. Calculation of the synergistic and antagonistic response of herbicide combinations. Weeds 1967, 15, 20-22.).
(§9) The following equation was used to calculate the expected activity of mixtures containing two active ingredients, A and B: Expected=A+B−(A×B/100)

LEFFA = experiment: as above; format: in vivo, Leptochloa fascicularis; settings: 22 DAA
Text: as §1, §2, §3, §4, §5, §6, §7, §8, §9

LEFCH = experiment: whole plant or invertebrate; format: in vivo, Leptochloa chinensis; settings: Dinebra chinensis, post-emergence, 528 h, read-out: Visual Weed Control (%) - 22 DAA LEFCH Obs
Method: as §1, with “When required to ensure good germination and healthy plants, a fungicide treatment and/or other chemical or physical treatment was applied.” left out
as §2, §4, §5, §6, §7, §8, §9

ECHCG = format: in vivo, Echinochloa crus-galli; settings: 22 DAA
Method: as §1, with “When required to ensure good germination and healthy plants, a fungicide treatment and/or other chemical or physical treatment was applied.” left out
as §2, §4, §5, §6, §7, §8, §9

DIGSA = format: in vivo, Digitaria sanguinalis
Method: as §1, with “When required to ensure good germination and healthy plants, a fungicide treatment and/or other chemical or physical treatment was applied.” left out
as §2, §4, §5, §6, §7, §8, §9

[1] = 22 DAA, 140 g ai/ha alone, second part of Table 18
[2] = 22 DAA, 280 g ai/ha alone, second part of Table 18
[3] = 22 DAA, 560 g ai/ha alone, second part of Table 18

CCOC(=O)CC(SP(=S)(OC)OC)C(=O)OCC (stereo not shown) [Malathion, S-1,2-bis(ethoxycarbonyl)ethyl O,O-dimethyl phosphorodithioate]
Visual Weed Control (%) - 22 DAA LEFPA Obs (LEFPA; 140 g ai/ha alone): 0% | Visual Weed Control (%) - 22 DAA LEFPA Obs (LEFPA; 280 g ai/ha alone): 0% | Visual Weed Control (%) - 22 DAA LEFPA Obs (LEFPA; 560 g ai/ha alone): 0% | Visual Weed Control (%) - 22 DAA LEFFA Obs (LEFFA; 140 g ai/ha alone): 0% | Visual Weed Control (%) - 22 DAA LEFFA Obs (LEFFA; 280 g ai/ha alone): 0% | Visual Weed Control (%) - 22 DAA LEFFA Obs (LEFFA; 560 g ai/ha alone): 0% | pest or weed control at 140 g/ha (LEFCH; 22 DAA, 140 g ai/ha alone): 0% | pest or weed control at 140 g/ha (LEFCH; [1]): 0% | pest or weed control at 280 g/ha (LEFCH; 22 DAA, 280 g ai/ha alone): 0% | pest or weed control at 280 g/ha (LEFCH; [2]): 0% | pest or weed control at 560 g/ha (LEFCH; 22 DAA, 560 g ai/ha alone): 0% | pest or weed control at 560 g/ha (LEFCH; [3]): 0% | Visual Weed Control (%) - 22 DAA ECHCG Obs (ECHCG; 140 g ai/ha alone): 0% | Visual Weed Control (%) - 22 DAA ECHCG Obs (ECHCG; 280 g ai/ha alone): 0% | Visual Weed Control (%) - 22 DAA ECHCG Obs (ECHCG; 560 g ai/ha alone): 0% | Visual Weed Control (%) - 22 DAA DIGSA Obs (DIGSA; 22 DAA, 140 g ai/ha alone): 0% | Visual Weed Control (%) - 22 DAA DIGSA Obs (DIGSA; [1]): 0% | Visual Weed Control (%) - 22 DAA DIGSA Obs (DIGSA; 22 DAA, 280 g ai/ha alone): 0% | Visual Weed Control (%) - 22 DAA DIGSA Obs (DIGSA; [2]): 0% | Visual Weed Control (%) - 22 DAA DIGSA Obs (DIGSA; 22 DAA, 560 g ai/ha alone): 0% | Visual Weed Control (%) - 22 DAA DIGSA Obs (DIGSA; [3]): 0%

CCCCOCCOCCOCc1cc2c(cc1CCC)OCO2 [Piperonyl Butoxide, 5-[[2-(2-butoxyethoxy)ethoxy]methyl]-6-propyl-1,3-benzodioxole]
Visual Weed Control (%) - 22 DAA LEFPA Obs (LEFPA; 140 g ai/ha alone): 0% | Visual Weed Control (%) - 22 DAA LEFPA Obs (LEFPA; 280 g ai/ha alone): 5% | Visual Weed Control (%) - 22 DAA LEFPA Obs (LEFPA; 560 g ai/ha alone): 0% | Visual Weed Control (%) - 22 DAA LEFFA Obs (LEFFA; 140 g ai/ha alone): 0% | Visual Weed Control (%) - 22 DAA LEFFA Obs (LEFFA; 280 g ai/ha alone): 5% | Visual Weed Control (%) - 22 DAA LEFFA Obs (LEFFA; 560 g ai/ha alone): 0% | pest or weed control at 140 g/ha (LEFCH): 0% | pest or weed control at 280 g/ha (LEFCH): 0% | pest or weed control at 560 g/ha (LEFCH): 0% | Visual Weed Control (%) - 22 DAA DIGSA Obs (DIGSA; in vivo): 0%
